The nature of the data set: Half-lives and pharmacokinetic parameters of polypeptides vs HM-1. More on the design: AUC0-∞: concentration or dose not given beside the values. Conditions: in vivo.
[1] abbreviates: read-out: T1/2β (half-life) (converted).

The record followed here is patent US20200270309A1, “MALEIMIDE GROUP-MODIFIED ANGIOGENESIS INHIBITOR HM-1 AND USE THEREOF” (NANJING ANJI BIOLOGICAL TECHNOLOGY CO., LTD, priority 2017, published 2020).

Read-outs that look alike come from different tables or passages of the source. Peptide text beside a SMILES is read from it. * marks the point of attachment. Hexanoyl(6-maleimido) = O=C1C=CC(=O)N1CCCCCC(=O)*; X23 = O=C1C=CC(=O)N1CCOCCOCCOCCOCCOCCOCCCCC(=O)*; Propanoyl(3-maleimido) = O=C1C=CC(=O)N1CCC(=O)*; X39 = O=C1C=CC(=O)N1c1ccc(CCCCCCCCCCC(=O)*)cc1; X20 = O=C1C=CC(=O)N1CCOCCOCCOCCOCCOCCCC(=O)*; X27 = O=C1C=CC(=O)N1CCOCCOCCOCCOCCCCCC(=O)*; X19 = O=C1C=CC(=O)N1CCOCCOCCOCCOCCOCC(=O)*; X25 = O=C1C=CC(=O)N1CCOCCOCCOCCOCCCCC(=O)*; Maleimidoacetyl = O=C1C=CC(=O)N1CC(=O)*; X35 = O=C1C=CC(=O)N1CCOCCOCCOCCOCC(=O)*; X15 = O=C1C=CC(=O)N1CCOCCOCCOCCC(=O)*; X50 = O=C1C=CC(=O)N1c1ccc(CC(=O)*)cc1; X21 = O=C1C=CC(=O)N1CCOCCCCCCC(=O)*; X13 = O=C1C=CC(=O)N1CCOCCCCCC(=O)*

`C[C@H](NC(=O)CNC(=O)[C@H](CCCNC(=N)N)NC(=O)CCCCOCCOCCOCCOCCOCCOCCN1C(=O)C=CC1=O)C(=O)N[C@@H](CC(=O)O)C(=O)N[C@@H](CCCNC(=N)N)C(=O)N[C@@H](C)C(=O)NCC(=O)NCC(=O)NCC(=O)NCC(=O)N[C@@H](CCCNC(=N)N)C(=O)NCC(=O)N[C@@H](CC(=O)O)C(=O)O` [X87] (X23-RGADRAGGGGRGD-OH): the AUC(0-inf) is 33400 ± 8450 ng·h/mL, the MRT inf was found to be 59.8 ± 10.6 h and the clearance is 0.498 mL/min/kg. This molecule also showed a half-life (T1/2β (half-life)) of 41.42 ± 0.31 h.
The molecule `C[C@H](NC(=O)CNC(=O)[C@H](CCCNC(=N)N)NC(=O)CCCCCCOCCN1C(=O)C=CC1=O)C(=O)N[C@@H](CC(=O)O)C(=O)N[C@@H](CCCNC(=N)N)C(=O)N[C@@H](C)C(=O)NCC(=O)NCC(=O)NCC(=O)NCC(=O)N[C@@H](CCCNC(=N)N)C(=O)NCC(=O)N[C@@H](CC(=O)O)C(=O)O` [X54] (X21-RGADRAGGGGRGD-OH) had an AUC(0-inf) of 27200 ± 7640 ng·h/mL, an MRT inf of 48.8 ± 11.2 h and a clearance of 0.612 mL/min/kg. This molecule also had a half-life (T1/2β (half-life)) of 33.83 ± 0.25 h.
`C[C@H](NC(=O)CNC(=O)[C@H](CCCNC(=N)N)NC(=O)CN1C(=O)C=CC1=O)C(=O)N[C@@H](CC(=O)O)C(=O)N[C@@H](CCCNC(=N)N)C(=O)N[C@@H](C)C(=O)NCC(=O)NCC(=O)NCC(=O)NCC(=O)N[C@@H](CCCNC(=N)N)C(=O)NCC(=O)N[C@@H](CC(=O)O)C(=O)O` [X1] (Maleimidoacetyl-RGADRAGGGGRGD-OH): the AUC(0-inf) (read-out: AUC0-∞) is 29000 ± 6940 ng·h/mL. Further, the clearance (read-out: CL (converted)) is 0.575 mL/min/kg. The MRT inf (read-out: MRT0-∞) was found to be 51.9 ± 10.2 h. Also, the half-life under setting [1] was 35.99 ± 0.29 h.
For the molecule `C[C@H](NC(=O)CNC(=O)[C@H](CCCNC(=N)N)NC(=O)CCCCCOCCOCCOCCOCCN1C(=O)C=CC1=O)C(=O)N[C@@H](CC(=O)O)C(=O)N[C@@H](CCCNC(=N)N)C(=O)N[C@@H](C)C(=O)NCC(=O)NCC(=O)NCC(=O)NCC(=O)N[C@@H](CCCNC(=N)N)C(=O)NCC(=O)N[C@@H](CC(=O)O)C(=O)O` [X74] (X27-RGADRAGGGGRGD-OH), the AUC(0-inf) stood at 33700 ± 7090 ng·h/mL, the MRT inf is 60.4 ± 13.7 h and the clearance is 0.495 mL/min/kg. Besides, the half-life (T1/2β (half-life)) is 41.82 ± 0.29 h.
In the same order, the values of `C[C@H](NC(=O)CNC(=O)[C@H](CCCNC(=N)N)NC(=O)CCCCOCCOCCOCCOCCN1C(=O)C=CC1=O)C(=O)N[C@@H](CC(=O)O)C(=O)N[C@@H](CCCNC(=N)N)C(=O)N[C@@H](C)C(=O)NCC(=O)NCC(=O)NCC(=O)NCC(=O)N[C@@H](CCCNC(=N)N)C(=O)NCC(=O)N[C@@H](CC(=O)O)C(=O)O` [X73] (X25-RGADRAGGGGRGD-OH) are 26700 ± 8240 ng·h/mL, 47.9 ± 13.6 h, 0.623 mL/min/kg and 33.16 ± 0.26 h.
Turning to `C[C@H](NC(=O)CNC(=O)[C@H](CCCNC(=N)N)NC(=O)CCCCCN1C(=O)C=CC1=O)C(=O)N[C@@H](CC(=O)O)C(=O)N[C@@H](CCCNC(=N)N)C(=O)N[C@@H](C)C(=O)NCC(=O)NCC(=O)NCC(=O)NCC(=O)N[C@@H](CCCNC(=N)N)C(=O)NCC(=O)N[C@@H](CC(=O)O)C(=O)O` [X5] ({Hexanoyl(6-maleimido)}-RGADRAGGGGRGD-OH), the AUC(0-inf) (read-out: AUC0-∞) was determined as 27900 ± 7030 ng·h/mL. Also, the clearance (read-out: CL (converted)) was 0.598 mL/min/kg. Besides, the MRT inf (read-out: MRT0-∞) is 49.9 ± 13.2 h. Also, under setting [1], the half-life was 34.59 ± 0.29 h.
In turn, `C[C@H](NC(=O)CNC(=O)[C@H](CCCNC(=N)N)NC(=O)COCCOCCOCCOCCN1C(=O)C=CC1=O)C(=O)N[C@@H](CC(=O)O)C(=O)N[C@@H](CCCNC(=N)N)C(=O)N[C@@H](C)C(=O)NCC(=O)NCC(=O)NCC(=O)NCC(=O)N[C@@H](CCCNC(=N)N)C(=O)NCC(=O)N[C@@H](CC(=O)O)C(=O)O` [X70] (X35-RGADRAGGGGRGD-OH) showed an AUC(0-inf) of 28000 ± 8160 ng·h/mL, an MRT inf of 50.2 ± 10.5 h and a clearance of 0.595 mL/min/kg. In addition, the half-life (T1/2β (half-life)) is 34.76 ± 0.26 h.
In the same order, the values of `C[C@H](NC(=O)CNC(=O)[C@H](CCCNC(=N)N)NC(=O)COCCOCCOCCOCCOCCN1C(=O)C=CC1=O)C(=O)N[C@@H](CC(=O)O)C(=O)N[C@@H](CCCNC(=N)N)C(=O)N[C@@H](C)C(=O)NCC(=O)NCC(=O)NCC(=O)NCC(=O)N[C@@H](CCCNC(=N)N)C(=O)NCC(=O)N[C@@H](CC(=O)O)C(=O)O` [X77] (X19-RGADRAGGGGRGD-OH) are 34600 ± 8180 ng·h/mL, 61.9 ± 9.54 h, 0.482 mL/min/kg and 42.91 ± 0.25 h.
For `C[C@H](NC(=O)CNC(=O)[C@H](CCCNC(=N)N)NC(=O)CCCCCCCCCCc1ccc(N2C(=O)C=CC2=O)cc1)C(=O)N[C@@H](CC(=O)O)C(=O)N[C@@H](CCCNC(=N)N)C(=O)N[C@@H](C)C(=O)NCC(=O)NCC(=O)NCC(=O)NCC(=O)N[C@@H](CCCNC(=N)N)C(=O)NCC(=O)N[C@@H](CC(=O)O)C(=O)O` [X46] (X39-RGADRAGGGGRGD-OH) the same measures were 31600 ± 7470 ng·h/mL, 56.6 ± 11 h, 0.527 mL/min/kg and 39.23 ± 0.29 h.
In the same order, the values of `C[C@H](NC(=O)CNC(=O)[C@H](CCCNC(=N)N)NC(=O)CCOCCOCCOCCN1C(=O)C=CC1=O)C(=O)N[C@@H](CC(=O)O)C(=O)N[C@@H](CCCNC(=N)N)C(=O)N[C@@H](C)C(=O)NCC(=O)NCC(=O)NCC(=O)NCC(=O)N[C@@H](CCCNC(=N)N)C(=O)NCC(=O)N[C@@H](CC(=O)O)C(=O)O` [X64] (X15-RGADRAGGGGRGD-OH) are 32300 ± 7250 ng·h/mL, 57.7 ± 13 h, 0.517 mL/min/kg and 39.97 ± 0.28 h.
For the molecule `C[C@H](NC(=O)CNC(=O)[C@H](CCCNC(=N)N)NC(=O)CCCCCOCCN1C(=O)C=CC1=O)C(=O)N[C@@H](CC(=O)O)C(=O)N[C@@H](CCCNC(=N)N)C(=O)N[C@@H](C)C(=O)NCC(=O)NCC(=O)NCC(=O)NCC(=O)N[C@@H](CCCNC(=N)N)C(=O)NCC(=O)N[C@@H](CC(=O)O)C(=O)O` [X53] (X13-RGADRAGGGGRGD-OH), the AUC(0-inf) is 31100 ± 7940 ng·h/mL, the MRT inf came to 55.5 ± 12.4 h and the clearance was 0.537 mL/min/kg. This molecule also had a half-life (T1/2β (half-life)) of 38.47 ± 0.24 h.
Consider `CSCC[C@H](NC(=O)[C@H](Cc1c[nH]cn1)NC(=O)[C@H](CCC(N)=O)NC(=O)[C@H](CCCNC(=N)N)NC(=O)CCN1C(=O)C=CC1=O)C(=O)N[C@@H](Cc1ccccc1)C(=O)N[C@@H](CO)C(=O)N[C@@H](Cc1c[nH]c2ccccc12)C(=O)N[C@H](C(=O)N[C@@H](CC(C)C)C(=O)N[C@@H](C)C(=O)N[C@@H](CCCNC(=N)N)C(=O)N[C@@H](CC(N)=O)C(=O)N[C@@H](CC(=O)O)C(=O)N[C@@H](CCC(N)=O)C(=O)N[C@@H](CCC(=O)O)C(=O)N[C@@H](CCC(=O)O)C(=O)N[C@@H](CCCNC(=N)N)C(=O)NCC(=O)N[C@@H](CC(=O)O)C(=O)O)C(C)C` [P1] ({Propanoyl(3-maleimido)}-RQHMFSWVLARNDQEERGD-OH; C-terminus assumed), for which the “AUC0-∞” value is given as 0.0336 ± 0.0083 mg/L/h. Also, the half-life under setting [1] is 36.96 ± 0.25 h.
In turn, `C[C@H](NC(=O)CNC(=O)[C@H](CCCNC(=N)N)NC(=O)CCCOCCOCCOCCOCCOCCN1C(=O)C=CC1=O)C(=O)N[C@@H](CC(=O)O)C(=O)N[C@@H](CCCNC(=N)N)C(=O)N[C@@H](C)C(=O)NCC(=O)NCC(=O)NCC(=O)NCC(=O)N[C@@H](CCCNC(=N)N)C(=O)NCC(=O)N[C@@H](CC(=O)O)C(=O)O` [X79] (X20-RGADRAGGGGRGD-OH) had an AUC(0-inf) of 30500 ± 8350 ng·h/mL, an MRT inf of 54.6 ± 10.2 h and a clearance of 0.547 mL/min/kg. This molecule had a half-life (T1/2β (half-life)) of 37.87 ± 0.32 h.
For `C[C@H](NC(=O)CNC(=O)[C@H](CCCNC(=N)N)NC(=O)Cc1ccc(N2C(=O)C=CC2=O)cc1)C(=O)N[C@@H](CC(=O)O)C(=O)N[C@@H](CCCNC(=N)N)C(=O)N[C@@H](C)C(=O)NCC(=O)NCC(=O)NCC(=O)NCC(=O)N[C@@H](CCCNC(=N)N)C(=O)NCC(=O)N[C@@H](CC(=O)O)C(=O)O` [X37] (X50-RGADRAGGGGRGD-OH) the same measures were 27200 ± 7210 ng·h/mL, 48.7 ± 13.6 h, 0.612 mL/min/kg and 33.76 ± 0.28 h.
